Laboratory results reported in patent US20250009614A1 (priority 2021, published 2025).

Columns and labels:
A549 cells = assay: In-vitro cytotoxicity, MTT assay; conditions: 24 hours
human skin = assay: Skin irritancy patch test; format: in vivo; conditions: occluded patch, neat
Experimental: The objective of the study was to determine skin irritancy potential of the nanoemulsion hand sanitizer products of the invention. The study was conducted according to internationally recognized Good Clinical Practice Guidelines. Permission to conduct the study was covered under the protocol approval for project MREC/H/48/2014: CR of the Research, Ethics and Publications Committee of the Sefako Makgatho Health Sciences University. Recruitment for the study began two weeks before the commencement of the study and approximately 25 panellists were recruited according to the study requirements, to commence the study with a test panel of 20. Potential panellists attended a series of study briefings held during the week prior to the study. Panellists were verbally briefed and given the Study Instructions, Informed Consent forms (plus coloured duplicate copies of the latter).
Panellists were given specifically timed appointments for the whole study. Unless otherwise stated in the summary, twenty adult female volunteers were used, of whom five had sensitive skins (as determined from the subject enrolment questionnaire). Signed consent forms were obtained from all subjects. Subjects with a history of clinical dermal abnormalities or who are taking or using medication which may affect test results through mediation of the inflammatory response were excluded. […]
Briefly, the study procedure was as follows; Controls and products were applied to the inner forearm of each volunteer in a randomized, blinded pattern at zero hours and repeated on the same position at 24 hours. A measured volume of control or pieces of product was placed in the respective chamber and the chamber attached to the forearm. […]
The protocol uses 1% sodium lauryl sulphate (SLS) solution as a positive control and de-ionized water as a negative control. A measured amount of 0.02 ml of sodium lauryl sulphate and de-ionized water was applied. […]
The maximum irritancy (as calculated by the mean visual score+one standard deviation of the visual score) for the products and the controls is tabulated below. […]

HIV-1 pseudovirus = conditions: infection of 100 TCID50; cited from earlier work

| Molecule | cytotoxicity (in words) (A549 cells) | Maximum value (mean visual score + sd) (human skin; 0-3 scale, 20 panellists) | Conclusion (irritancy category) (human skin) | Time point (hours) of maximum value (human skin) | reported IC50 (as mass) (HIV-1 pseudovirus) |
| --- | --- | --- | --- | --- | --- |
| C=C(C)[C@@H]1CCC(C)=C[C@H]1c1c(O)cc(CCCCC)cc1O [CBD, cannabidiol] | significant toxicity |  |  |  |  |
| CCCCCCCCCCCCOS(=O)(=O)[O-].[Na+] [H, Sodium Lauryl Sulphate] |  | 2.18 | Irritant (product mean visual score+SD >1.5—Product is irritant) | 72 h |  |
| cyanovirin-N (protein, UniProt P81180 1-101, looked up) Cyanovirin-N: LGKFSQTCYNSAIQGSVLTSTCERTNGGYNTSSIDLNSVIENVDGSLKWQPSNFIETCRNTQLAGSSELAAECKTRAQQFVSTKINLDDHIANIDGTLKYE | significant toxicity |  |  |  | 22 to 340 µg |
